From patent US20230265151A1, “GIP/GLP1 CO-AGONIST COMPOUNDS” (priority 2020, published 2023)
Where two headings read alike, the source gives them in different places.

Legend:
Format in all cases: cell-based
hGCGR = target: T1, hGCGR (Homo sapiens, UniProt P47871); experiment: Functional cAMP formation (HTRF) in HEK-293 clonal cells expressing hGCGR, 0.1% bovine casein, without or with 1.0% human serum albumin; settings: cAMP, 37° C.
T1 construct: expressed in transfected cells
Summary of the method: (§1)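 Cells were stimulated with peptide for 30 min at 37° C, then lysed in buffer carrying cAMP-d2 and anti-cAMP Eu3+-cryptate for a competitive HTRF read after at least 60 min at room temperature. The 665/620 nm ratio was converted to nM cAMP against a standard curve.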

hGIPR = target: T2, hGIPR (Homo sapiens, UniProt P48546); experiment: Functional cAMP formation (HTRF) in HEK-293 clonal cells expressing hGIPR, 0.1% bovine casein, without or with 1.0% human serum albumin; settings: for Emax: percent of maximal response to GIP(1-42)NH2; for EC50: cAMP
T2 construct: expressed in transfected cells
T2 sequence (P48546 22-466): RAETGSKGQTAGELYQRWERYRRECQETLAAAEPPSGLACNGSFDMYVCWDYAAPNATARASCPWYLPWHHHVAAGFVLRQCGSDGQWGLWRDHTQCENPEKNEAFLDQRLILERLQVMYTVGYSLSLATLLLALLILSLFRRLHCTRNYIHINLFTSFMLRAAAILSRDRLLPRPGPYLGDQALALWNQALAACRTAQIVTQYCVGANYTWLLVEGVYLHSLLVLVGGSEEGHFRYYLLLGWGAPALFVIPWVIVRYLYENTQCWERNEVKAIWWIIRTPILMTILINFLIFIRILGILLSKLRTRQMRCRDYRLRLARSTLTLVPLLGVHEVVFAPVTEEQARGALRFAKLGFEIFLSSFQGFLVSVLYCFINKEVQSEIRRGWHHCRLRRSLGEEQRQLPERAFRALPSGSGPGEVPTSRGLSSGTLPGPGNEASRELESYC
Summary of the method: as §1

hGLP-1R = hGLP-1R (Homo sapiens, UniProt P43220); experiment: Functional cAMP formation (HTRF) in HEK-293 clonal cells expressing hGLP-1R, 0.1% bovine casein, without or with 1.0% human serum albumin; parameters: expressed in transfected cells; settings: for Emax: percent of maximal response to GLP-1(7-36)NH2; for EC50: cAMP
Summary of the method: as §1

[1] = 0.1% bovine casein (no human serum albumin), geometric mean, read-out: hGCGR EC50, nM (SEM, n)
[2] = 0.1% bovine casein and 1.0% human serum albumin, geometric mean (SEM, n), read-out: hGCGR EC50, nM (SEM, n)
[3] = HEK293, cAMP, 37° C., 0.1% bovine casein and 1.0% human serum albumin, read-out: hGIPR Emax, % ± SEM
[4] = 37° C., 0.1% bovine casein (no human serum albumin), geometric mean, read-out: hGIPR EC50, nM (SEM, n)
[5] = HEK293, cAMP, 37° C., 0.1% bovine casein and 1.0% human serum albumin, read-out: hGLP-1R Emax, % ± SEM
[6] = 37° C., 0.1% bovine casein (no human serum albumin), geometric mean, read-out: hGLP-1R EC50, nM (SEM, n)

Chain of hGLP-1R (P43220 24-463): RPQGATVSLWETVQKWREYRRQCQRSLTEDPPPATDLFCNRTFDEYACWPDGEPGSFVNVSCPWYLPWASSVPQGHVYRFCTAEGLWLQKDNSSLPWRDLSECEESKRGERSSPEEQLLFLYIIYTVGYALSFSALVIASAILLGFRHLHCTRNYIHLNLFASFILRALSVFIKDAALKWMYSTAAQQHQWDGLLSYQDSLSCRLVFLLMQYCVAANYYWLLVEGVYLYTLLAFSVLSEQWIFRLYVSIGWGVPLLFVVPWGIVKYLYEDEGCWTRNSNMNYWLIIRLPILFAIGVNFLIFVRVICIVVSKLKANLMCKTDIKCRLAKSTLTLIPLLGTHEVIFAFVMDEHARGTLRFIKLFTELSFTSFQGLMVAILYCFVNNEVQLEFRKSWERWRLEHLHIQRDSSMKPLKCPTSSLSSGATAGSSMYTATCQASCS
T1 sequence (P47871 26-477): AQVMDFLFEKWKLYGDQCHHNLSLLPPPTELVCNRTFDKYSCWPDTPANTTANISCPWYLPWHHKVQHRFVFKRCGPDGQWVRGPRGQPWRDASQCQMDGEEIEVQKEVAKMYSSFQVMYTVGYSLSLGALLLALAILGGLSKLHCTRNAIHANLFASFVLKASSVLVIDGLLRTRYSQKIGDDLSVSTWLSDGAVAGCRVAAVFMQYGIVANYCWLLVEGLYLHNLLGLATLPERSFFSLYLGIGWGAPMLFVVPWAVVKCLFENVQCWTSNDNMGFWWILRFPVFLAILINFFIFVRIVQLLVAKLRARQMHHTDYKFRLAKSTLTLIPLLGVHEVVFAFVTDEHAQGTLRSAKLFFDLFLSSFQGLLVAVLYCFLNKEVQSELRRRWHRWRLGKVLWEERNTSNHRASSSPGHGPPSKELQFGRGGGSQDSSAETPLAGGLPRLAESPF

Row | Structure (SMILES) | EC50 (hGCGR; [1]) [nM] | EC50 (hGCGR; [2]) [nM] | Emax (hGIPR; [3]) [%] | EC50 (hGIPR; [4]) [nM] | Emax (hGLP-1R; [5]) [%] | EC50 (hGLP-1R; [6]) [nM] | EC50 (hGCGR; hGCGR EC50, nM (SEM, n), 0.1% bovine casein (no human serum albumin), geometric mean) [nM] | EC50 (hGCGR; hGCGR EC50, nM (SEM, n), 0.1% bovine casein and 1.0% human serum albumin, geometric mean (SEM, n)) [nM] | Emax (hGIPR; HEK293, read-out: hGIPR Emax, % ± SEM, cAMP, 37° C., 0.1% bovine casein and 1.0% human serum albumin) [%] | EC50 (hGIPR; hGIPR EC50, nM (SEM, n), 37° C., 0.1% bovine casein (no human serum albumin), geometric mean) [nM] | Emax (hGLP-1R; HEK293, read-out: hGLP-1R Emax, % ± SEM, cAMP, 37° C., 0.1% bovine casein, arithmetic mean) [%] | EC50 (hGLP-1R; hGLP-1R EC50, nM (SEM, n), 37° C., 0.1% bovine casein (no human serum albumin), geometric mean) [nM] | Emax (hGIPR; HEK293, cAMP, 37° C., 0.1% bovine casein, arithmetic mean, read-out: hGIPR Emax, % ± SEM) [%] | EC50 (hGIPR; 37° C., 0.1% bovine casein and 1.0% human serum albumin, geometric mean (SEM, n), read-out: hGIPR EC50, nM (SEM, n)) [nM] | EC50 (hGLP-1R; 37° C., 0.1% bovine casein and 1.0% human serum albumin, geometric mean (SEM, n), read-out: hGLP-1R EC50, nM (SEM, n)) [nM]
1 | CC[C@H](C)[C@H](NC(=O)[C@H](CC(C)C)NC(=O)[C@](C)(Cc1ccc(O)cc1)NC(=O)[C@@H](CCC(=O)O)NC(=O)[C@@H](NC(=O)[C@H](Cc1ccccc1)NC(=O)[C@H](CCC(=O)O)NC(=O)C(C)(C)NC(=O)[C@H](CCC(N)=O)NC(=O)[C@H](C)NC(=O)[C@H](CCCCNC(=O)COCCOCCNC(=O)COCCOCCNC(=O)CC[C@H](NC(=O)CCCCCCCCCCCCC(=O)O)C(=O)O)NC(=O)[C@H](CCCN)NC(=O)[C@H](CC(=O)O)NC(=O)[C@H](CC(C)C)NC(=O)[C@](C)(CC(C)C)NC(=O)[C@@H](NC(=O)C(C)(C)NC(=O)[C@H](Cc1ccncc1)NC(=O)[C@H](CC(=O)O)NC(=O)[C@H](CO)NC(=O)[C@@H](NC(=O)[C@](C)(Cc1ccccc1F)NC(=O)[C@@H](NC(=O)CNC(=O)[C@H](CCC(=O)O)NC(=O)C(C)(C)NC(=O)[C@@H](N)Cc1ccc(O)cc1)[C@@H](C)O)[C@@H](C)O)[C@@H](C)CC)[C@@H](C)CC)C(=O)N[C@@H](CCC(=O)O)C(=O)NCC(=O)NCC(=O)N1CCC[C@H]1C(=O)N[C@@H](CO)C(=O)N[C@@H](CO)C(=O)NCC(=O)N[C@@H](C)C(=O)N1CCC[C@H]1C(=O)N1CCC[C@H]1C(=O)N1CCC[C@H]1C(=O)N[C@@H](CO)C(=O)N[C@@H](CCCCNC(=O)COCCOCCNC(=O)COCCOCCNC(=O)CC[C@H](NC(=O)CCCCCCCCCCCCC(=O)O)C(=O)O)C(N)=O [Example 359] | > 10100 | > 9950 | 81 | 0.0261 | 95.1 | 1.18 | – | – | – | – | – | – | – | – | –
2 | CC[C@H](C)[C@H](NC(=O)[C@H](CC(C)C)NC(=O)[C@](C)(Cc1ccc(O)cc1)NC(=O)[C@@H](CCC(=O)O)NC(=O)[C@@H](NC(=O)[C@H](Cc1ccccc1)NC(=O)[C@H](CCC(=O)O)NC(=O)C(C)(C)NC(=O)[C@H](CCC(N)=O)NC(=O)[C@H](C)NC(=O)[C@H](CCCCNC(=O)COCCOCCNC(=O)CC[C@H](NC(=O)CCCCCCCCCOc1ccc(C(=O)O)cc1)C(=O)O)NC(=O)[C@H](CCCN)NC(=O)[C@H](CC(=O)O)NC(=O)[C@H](CC(C)C)NC(=O)[C@](C)(CC(C)C)NC(=O)[C@@H](NC(=O)C(C)(C)NC(=O)[C@H](Cc1ccncc1)NC(=O)[C@H](CC(=O)O)NC(=O)[C@H](CO)NC(=O)[C@@H](NC(=O)[C@](C)(Cc1ccccc1F)NC(=O)[C@@H](NC(=O)CNC(=O)[C@H](CCC(=O)O)NC(=O)C(C)(C)NC(=O)[C@@H](N)Cc1ccc(O)cc1)[C@@H](C)O)[C@@H](C)O)[C@@H](C)CC)[C@@H](C)CC)C(=O)N[C@@H](CCC(=O)O)C(=O)NCC(=O)NCC(=O)N1CCC[C@H]1C(=O)N[C@@H](CO)C(=O)N[C@@H](CO)C(=O)NCC(=O)N[C@@H](C)C(=O)N1CCC[C@H]1C(=O)N1CCC[C@H]1C(=O)N1CCC[C@H]1C(=O)N[C@@H](CO)C(=O)N[C@@H](CCCCNC(=O)COCCOCCNC(=O)CC[C@H](NC(=O)CCCCCCCCCOc1ccc(C(=O)O)cc1)C(=O)O)C(N)=O [Example 362] | – | – | – | – | – | – | > 10100 | > 9950 | 86.7 | 0.0131 | 109 | 0.34 | – | – | –
3 | CC[C@H](C)[C@H](NC(=O)[C@H](CCCN)NC(=O)[C@H](CC(=O)O)NC(=O)[C@H](CC(C)C)NC(=O)[C@](C)(CC(C)C)NC(=O)[C@@H](NC(=O)C(C)(C)NC(=O)[C@H](Cc1ccc(O)cc1)NC(=O)[C@H](CC(=O)O)NC(=O)[C@H](CO)NC(=O)[C@@H](NC(=O)[C@](C)(Cc1ccccc1F)NC(=O)[C@@H](NC(=O)CNC(=O)[C@H](CCC(=O)O)NC(=O)C(C)(C)NC(=O)[C@@H](N)Cc1ccc(O)cc1)[C@@H](C)O)[C@@H](C)O)[C@@H](C)CC)C(=O)N[C@@H](C)C(=O)N[C@@H](CCC(N)=O)C(=O)NC(C)(C)C(=O)N[C@@H](CCC(=O)O)C(=O)N[C@@H](Cc1ccccc1)C(=O)N[C@H](C(=O)N[C@@H](CCCCNC(=O)COCCOCCNC(=O)COCCOCCNC(=O)CC[C@H](NC(=O)COCCOCCNC(=O)CCCCCCCCCCCCC(=O)O)C(=O)O)C(=O)N[C@@](C)(Cc1ccc(O)cc1)C(=O)N[C@@H](CC(C)C)C(=O)N[C@H](C(=O)N[C@@H](CCCCNC(=O)COCCOCCNC(=O)COCCOCCNC(=O)CC[C@H](NC(=O)COCCOCCNC(=O)CCCCCCCCCCCCC(=O)O)C(=O)O)C(=O)NCC(=O)NCC(=O)N1CCC[C@H]1C(=O)N[C@@H](CO)C(=O)N[C@@H](CO)C(=O)NCC(=O)N[C@@H](C)C(=O)N1CCC[C@H]1C(=O)N1CCC[C@H]1C(=O)N1CCC[C@H]1C(=O)N[C@@H](CO)C(N)=O)[C@@H](C)CC)[C@@H](C)CC [Example 363] | > 9950 | > 9950 | 91.1 | 0.0183 | 111 | 0.34 | – | – | – | – | – | – | 111 | 0.976 | –
4 | CC[C@H](C)[C@H](NC(=O)[C@H](CCCN)NC(=O)[C@H](CC(=O)O)NC(=O)[C@H](CC(C)C)NC(=O)[C@](C)(CC(C)C)NC(=O)[C@@H](NC(=O)C(C)(C)NC(=O)[C@H](Cc1ccc(O)cc1)NC(=O)[C@H](CC(=O)O)NC(=O)[C@H](CO)NC(=O)[C@@H](NC(=O)[C@](C)(Cc1ccccc1F)NC(=O)[C@@H](NC(=O)CNC(=O)[C@H](CCC(=O)O)NC(=O)C(C)(C)NC(=O)[C@@H](N)Cc1ccc(O)cc1)[C@@H](C)O)[C@@H](C)O)[C@@H](C)CC)C(=O)N[C@@H](C)C(=O)N[C@@H](CCC(N)=O)C(=O)NC(C)(C)C(=O)N[C@@H](CCC(=O)O)C(=O)N[C@@H](Cc1ccccc1)C(=O)N[C@H](C(=O)N[C@@H](CCCCNC(=O)COCCOCCNC(=O)CC[C@H](NC(=O)COCCOCCNC(=O)COCCOCCNC(=O)CCCCCCCCCCCCC(=O)O)C(=O)O)C(=O)N[C@@](C)(Cc1ccc(O)cc1)C(=O)N[C@@H](CC(C)C)C(=O)N[C@H](C(=O)N[C@@H](CCCCNC(=O)COCCOCCNC(=O)CC[C@H](NC(=O)COCCOCCNC(=O)COCCOCCNC(=O)CCCCCCCCCCCCC(=O)O)C(=O)O)C(=O)NCC(=O)NCC(=O)N1CCC[C@H]1C(=O)N[C@@H](CO)C(=O)N[C@@H](CO)C(=O)NCC(=O)N[C@@H](C)C(=O)N1CCC[C@H]1C(=O)N1CCC[C@H]1C(=O)N1CCC[C@H]1C(=O)N[C@@H](CO)C(N)=O)[C@@H](C)CC)[C@@H](C)CC [Example 364] | > 9950 | > 9950 | 89.1 | 0.0111 | – | 0.347 | – | – | – | – | – | – | – | – | 13
